The results in this text go back to ChEMBL document CHEMBL1201862, “PubChem BioAssay data set” (2004).

Some test systems named below: SF-268; SNB-19; SN12C; MOLT-4; OVCAR-8; U-251; NCI/ADR-RES; IGROV-1; SK-MEL-5; MDA-MB-435; NCI-H226; KM12; PC-3; A498; Hs-578T; OVCAR-5; MDA-MB-231; SNB-75; NCI-H23; SR.
Experiment in all cases: NCI tumour cell line growth inhibition, 48 h

Structures are written as SMILES.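 Five concentrations, 48 hours, 96-well plates. Abbreviation: GI50, concentration required for 50% inhibition of growth.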 Activity calls are given as the source filed them. Cut-off read from the data, not from the text of the source: active = GI50 up to about 1.1 µM and inactive = higher. Where only a bound is given, the exact number is not on record here.

Turning to `N#CCCN(CCC#N)c1ccc(/C=C2\N=C(c3ccccc3)N(c3ccc(Cl)cc3)C2=O)cc1`, the GI50 in the assay on SF-268, in the assay on SNB-19, in the assay on SN12C, in the assay on MOLT-4, with OVCAR-8 and in the assay with U-251 was > 100 µM (inactive) throughout. In addition, the GI50 was > 100 µM (inactive) with NCI/ADR-RES; > 100 µM (inactive) with IGROV-1; 76.7 µM (inactive) with SK-MEL-5; 45.5 µM (inactive) with MDA-MB-435; > 100 µM (inactive) in the assay with NCI-H226; 58.7 µM (inactive) with KM12. In addition, the GI50 in the assay with PC-3 is > 100 µM (inactive); with A498 it was > 100 µM (inactive); in the assay on Hs-578T, 20.6 µM (inactive); in the assay on OVCAR-5, > 100 µM (inactive); in the assay with MDA-MB-231, > 100 µM (inactive).

Take `COC(=O)C1=C(C(=O)OC)SC2(S1)C(C(=O)OC)=C(C(=O)OC)Sc1c2ssc1=O`: the GI50 with SF-268 was 2.52 µM (inactive); in the assay on SNB-75 it was 4.01 µM (inactive); with SNB-19, 18.5 µM (inactive); in the assay on SN12C, 1.19 µM (inactive); in the assay on MOLT-4 it was 0.353 µM (active); with OVCAR-8, 1.34 µM (inactive). The GI50 in the assay with U-251 was 2.12 µM (inactive); in the assay on NCI/ADR-RES, 1 µM (active); in the assay on IGROV-1 it was 1.65 µM (inactive); with SK-MEL-5 it was 1.21 µM (inactive); in the assay on NCI-H23, 1.78 µM (inactive); with MDA-MB-435, 1.57 µM (inactive). For the same molecule, the GI50 in the assay with NCI-H226 was 1.48 µM (inactive); in the assay with KM12 it was 4.78 µM (inactive); with PC-3, 1.43 µM (inactive); in the assay on A498, 1.64 µM (inactive); in the assay on Hs-578T, 5.18 µM (inactive); in the assay with OVCAR-5, 2.11 µM (inactive). In addition, in the assay with MDA-MB-231, the GI50 is 1.67 µM (inactive).

`CCCCCCCCCC/C=C/CC(=O)SCCNC(=O)CCNC(=O)[C@@H](O)C(C)(C)COP(=O)(O)OP(=O)(O)OCC1OC(n2cnc3c(N)ncnc32)C(O)C1OP(=O)(O)O` (stereo not given in full): the GI50 in the assay with SF-268, in the assay on SNB-75, in the assay on SNB-19, in the assay with SN12C, in the assay on MOLT-4 and in the assay with OVCAR-8 was > 10 µM (inactive) throughout. Moreover, the GI50 in the assay on U-251, in the assay with NCI/ADR-RES, in the assay with IGROV-1, in the assay with SK-MEL-5, in the assay with NCI-H23 and with MDA-MB-435 was > 10 µM (inactive) each time. Moreover, the GI50 in the assay with NCI-H226, in the assay with KM12, with PC-3, with A498, with Hs-578T and in the assay on OVCAR-5 was > 10 µM (inactive) in each case. Moreover, the GI50 in the assay on MDA-MB-231 is > 10 µM (inactive).

For the molecule `CCN1CC2=C(NC(=S)NC2c2ccc(Cl)cc2)/C(=C/c2ccc(Cl)cc2)C1` (stereo not given), the GI50 in the assay with SF-268 is 77.4 µM (inactive); in the assay on SNB-75 it was 23.1 µM (inactive); in the assay with SNB-19, 68.9 µM (inactive); in the assay on MOLT-4, 10.5 µM (inactive); with OVCAR-8 it was 88.5 µM (inactive); in the assay with U-251 it was 45.3 µM (inactive). The GI50 in the assay on NCI/ADR-RES is > 100 µM (inactive); with IGROV-1, 42 µM (inactive); with SK-MEL-5, 97.7 µM (inactive); in the assay with NCI-H23 it was > 100 µM (inactive); in the assay on MDA-MB-435, 61.9 µM (inactive); in the assay with NCI-H226 it was > 100 µM (inactive). In addition, the GI50 in the assay on KM12 is > 100 µM (inactive); in the assay with PC-3, 46.5 µM (inactive); in the assay on A498, 23 µM (inactive); in the assay with Hs-578T it was 57.5 µM (inactive); in the assay on OVCAR-5 it was > 100 µM (inactive); with MDA-MB-231, > 100 µM (inactive).

In the case of `CC(C)(NC(=O)OCc1ccccc1)C(=O)OC(=O)C(C)(C)NC(=O)OCc1ccccc1`, the GI50 in the assay on SF-268 was 0.653 µM (active); in the assay with SNB-75 it was > 100 µM (inactive); in the assay with SNB-19 it was > 100 µM (inactive); in the assay on SN12C, > 100 µM (inactive); in the assay with MOLT-4, > 100 µM (inactive); in the assay with OVCAR-8, > 100 µM (inactive). For the same molecule, the GI50 with U-251, with NCI/ADR-RES, in the assay with IGROV-1, in the assay on SK-MEL-5, in the assay on NCI-H23 and in the assay on MDA-MB-435 was > 100 µM (inactive) each time. The GI50 with NCI-H226, in the assay with KM12, with PC-3, in the assay with A498, with Hs-578T and in the assay with OVCAR-5 was > 100 µM (inactive) throughout. In the assay on MDA-MB-231, the GI50 is > 100 µM (inactive).

As for `CN(C)CCn1c2c(c3ccccc31)CCc1ccccc1-2`, the GI50 with SF-268 is 17.9 µM (inactive); with SNB-19, 16.3 µM (inactive); in the assay with SN12C, 13.8 µM (inactive); with MOLT-4, 10.8 µM (inactive); with OVCAR-8, 16 µM (inactive); in the assay on U-251 it was 13.6 µM (inactive). Besides, the GI50 with NCI/ADR-RES is 15.6 µM (inactive); with IGROV-1, 10 µM (inactive); with SK-MEL-5, 6.1 µM (inactive); with NCI-H23, 17.4 µM (inactive); in the assay with MDA-MB-435, 17.4 µM (inactive); with NCI-H226, 12.8 µM (inactive). Also, the GI50 with KM12 was 13.4 µM (inactive); with SR, 10.8 µM (inactive); in the assay on PC-3, 11.4 µM (inactive); with Hs-578T, 15.1 µM (inactive); in the assay with OVCAR-5, 17.9 µM (inactive); with MDA-MB-231 it was 13.9 µM (inactive).

In the case of `CN1C(=O)C(CCO)(C(C)(C)C)c2ccccc21` (stereo not given), the GI50 in the assay on SF-268 was > 100 µM (inactive); in the assay with SNB-75 it was 68.1 µM (inactive); in the assay on SNB-19, > 100 µM (inactive); in the assay with SN12C, > 100 µM (inactive); in the assay on MOLT-4, > 100 µM (inactive); in the assay on OVCAR-8 it was > 100 µM (inactive). For the same molecule, the GI50 in the assay with U-251 is > 100 µM (inactive); in the assay on NCI/ADR-RES, > 100 µM (inactive); with SK-MEL-5, > 100 µM (inactive); in the assay with NCI-H23 it was > 100 µM (inactive); in the assay on MDA-MB-435, > 100 µM (inactive); in the assay with NCI-H226, 97.9 µM (inactive). Also, the GI50 with KM12, with SR, in the assay on PC-3, in the assay on Hs-578T, in the assay with OVCAR-5 and with MDA-MB-231 was > 100 µM (inactive) in each case.

As for `c1ccc2nn(C3CCCO3)nc2c1` (stereo not given), the GI50 with SF-268, with SNB-75, with SN12C, in the assay on MOLT-4, in the assay with OVCAR-8 and in the assay on U-251 was > 100 µM (inactive) each time. Also, the GI50 in the assay on NCI/ADR-RES, in the assay with IGROV-1, with SK-MEL-5, in the assay with NCI-H23, with MDA-MB-435 and in the assay on NCI-H226 was > 100 µM (inactive) each time. Also, the GI50 in the assay with PC-3, in the assay with A498, in the assay on Hs-578T, with OVCAR-5 and with MDA-MB-231 was > 100 µM (inactive) in each case.
